Experimental data taken from ChEMBL document CHEMBL3608228, “Bisacremines A-D, Dimeric Acremines Produced by a Soil-Derived Acremonium persicinum Strain” (J Nat Prod, 2015).
Activity calls are given as the source filed them. The calls are words filed in the database; no cut-off is given here.

Columns and labels:
[1] = test system: A549; experiment: Cytotoxicity against human A549 cells assessed as cell growth inhibition after 72 hrs by MTT assay; format: functional, cell-based; conditions: A549, 72 h
[2] = test system: HeLa; experiment: Cytotoxicity against human HeLa cells assessed as cell growth inhibition after 72 hrs by MTT assay; format: functional, cell-based
[3] = test system: Staphylococcus aureus; experiment: Antibacterial activity against Staphylococcus aureus; format: functional, organism-based
[4] = test system: HepG2; experiment: Cytotoxicity against human HepG2 cells assessed as cell growth inhibition after 72 hrs by MTT assay; format: functional, cell-based; conditions: HepG2, 72 h

Row | Structure (SMILES) | IC50 [1] [µM] | IC50 [2] [µM] | Activity [3] | IC50 [4] [µM]
1 | Cc1ccc(/C=C/[C@@]2(C)CC[C@@](C)(/C=C/C3=C[C@H](O)[C@](C)(O)C[C@@H]3O)O2)cc1 | > 50 | 31.1 | inactive | > 50
2 | Cc1ccc(/C=C/[C@]2(C)CC[C@](C)(/C=C/C3=C[C@H](O)[C@](C)(O)C[C@@H]3O)O2)cc1 | > 50 | 46.1 | inactive | > 50
3 | Cc1ccc(/C=C/[C@]2(C)CC[C@@](C)(/C=C/C3=C[C@H](O)[C@](C)(O)C[C@@H]3O)O2)cc1 | > 50 | 10.7 | inactive | > 50
4 | Cc1ccc(/C=C/[C@@]2(C)CC[C@](C)(/C=C/C3=C[C@H](O)[C@](C)(O)C[C@@H]3O)O2)cc1 | 41.3 | 9.3 | inactive | 31.1
